Reference: patent US11413291B2, “Pesticidally active heterocyclic derivatives with sulfur containing substituents” (SYNGENTA PARTICIPATIONS AG, priority 2017, dated 2022)

How the values were obtained:
Format in all cases: in vivo
Spodoptera littoralis [1] = assay: Example B2: Spodoptera littoralis, systemic uptake via lettuce roots from agar; details: 144 h, test rate 12.5 ppm, 6 days after infestation, read-out: effect in at least one of the three categories (mortality, anti-feeding, or growth inhibition)
Excerpt: Test compounds were applied by pipette from 10′000 ppm DMSO stock solutions into 24-well plates and mixed with agar. Lettuce seeds were placed onto the agar and the multi well plate was closed by another plate which contained also agar. After 7 days the compound was absorbed by the roots and the lettuce grew into the lid plate. The lettuce leaves were then cut off into the lid plate. Spodoptera eggs were pipetted through a plastic stencil onto a humid gel blotting paper and the lid plate was closed with it. The samples were assessed for mortality, anti-feedant effect and growth inhibition in comparison to untreated samples 6 days after infestation.

Bemisia tabaci = assay: Example B7: Bemisia tabaci, sprayed cotton leaf discs; details: foliar, 144 h, application rate 200 ppm, adult white flies, 6 days after incubation
Method: Cotton leaf discs were placed on agar in 24-well microtiter plates and sprayed with aqueous test solutions prepared from 10,000 ppm DMSO stock solutions. After drying the leaf discs were infested with adult white flies. The samples were checked for mortality 6 days after incubation.

Tetranychus urticae = assay: Example B10: Tetranychus urticae, sprayed bean leaf discs; details: foliar, 192 h, application rate 200 ppm, mixed population (mobile stages), 8 days after infestation
Method: Bean leaf discs on agar in 24-well microtiter plates were sprayed with aqueous test solutions prepared from 10,000 ppm DMSO stock solutions. After drying the leaf discs were infested with a mite population of mixed ages. The samples were assessed for mortality on mixed population (mobile stages) 8 days after infestation.

Myzus persicae [2] = assay: Example B5: Myzus persicae feeding/contact, sprayed sunflower leaf discs; details: Myzus persicae, foliar, 144 h; application rate 200 ppm; mixed ages; 6 days after infestation
Method: Sunflower leaf discs were placed onto agar in a 24-well microtiter plate and sprayed with aqueous test solutions prepared from 10,000 ppm DMSO stock solutions. After drying, the leaf discs were infested with an aphid population of mixed ages. The samples were assessed for mortality 6 days after infestation.

Myzus persicae [3] = assay: Example B6: Myzus persicae systemic, pea seedling roots in test solution; details: Myzus persicae, 144 h; test rate 24 ppm; mixed ages; 6 days
Method: Roots of pea seedlings infested with an aphid population of mixed ages were placed directly into aqueous test solutions prepared from 10,000 DMSO stock solutions. The samples were assessed for mortality 6 days after placing seedlings into test solutions.

Plutella xylostella = assay: Example B3: Plutella xylostella, artificial diet; details: 120 h, application rate 200 ppm, L2 larvae, 5 days after infestation, read-out: effect in at least one of the two categories (mortality or growth inhibition)
Method: (§1) 24-well microtiter plates with artificial diet were treated with aqueous test solutions prepared from 10,000 ppm DMSO stock solutions by pipetting. After drying, the plates were infested with L2 larvae (10 to 15 per well). The samples were assessed for mortality and growth inhibition in comparison to untreated samples 5 days after infestation.

Euschistus heros = assay: Example B8: Euschistus heros, sprayed soybean leaves; details: Euschistus heros, 120 h; application rate 200 ppm; N2 nymphs; 5 days after infestation; read-out: effect in at least one of the two categories (mortality or growth inhibition)
Method: Soybean leaves on agar in 24-well microtiter plates were sprayed with aqueous test solutions prepared from 10,000 ppm DMSO stock solutions. After drying the leaves were infested with N2 nymphs. The samples were assessed for mortality and growth inhibition in comparison to untreated samples 5 days after infestation.

Diabrotica balteata = assay: Example B4: Diabrotica balteata, sprayed maize sprouts; details: 96 h, application rate 200 ppm, L2 larvae, 4 days after infestation, read-out: effect in at least one of the two categories (mortality or growth inhibition)
Method: as §1, with “Maize sprouts placed onto an agar layer in 24-well” for “24-well”, “plates” for “plates with artificial diet”, “spraying.” for “pipetting.”, “(6” for “(10”, “10” for “15”, “4” for “5”

[4] = tested on: Frankliniella occidentalis; assay: Example B11: Frankliniella occidentalis, sprayed sunflower leaf discs; details: foliar, 168 h, application rate 200 ppm, mixed ages, 7 days after infestation
Method: Sunflower leaf discs were placed on agar in 24-well microtiter plates and sprayed with aqueous test solutions prepared from 10,000 DMSO stock solutions. After drying the leaf discs were infested with a Frankliniella population of mixed ages. The samples were assessed for mortality 7 days after infestation.

Spodoptera littoralis [5] = assay: Example B1: Spodoptera littoralis, sprayed cotton leaf discs; details: foliar, 72 h, application rate 200 ppm, L1 larvae, 3 days after infestation
Method: Cotton leaf discs were placed onto agar in 24-well microtiter plates and sprayed with aqueous test solutions prepared from 10′000 ppm DMSO stock solutions. After drying the leaf discs were infested with five L1 larvae. The samples were assessed for mortality, anti-feeding effect, and growth inhibition in comparison to untreated samples 3 days after infestation. Control of Spodoptera littoralis by a test sample is given when at least one of the categories mortality, anti-feedant effect, and growth inhibition is higher than the untreated sample.

CCn1c(C(F)(F)F)cc2nc(-c3ncc(C(C)(C)C#N)cc3S(=O)(=O)CC)n(C)c2c1=O [Compound P3, 2-[6-[5-ethyl-3-methyl-4-oxo-6-(trifluoromethyl)imidazo[4,5-c]pyridin-2-yl]-5-ethylsulfonyl-3-pyridyl]-2-methyl-propanenitrile]
≥ 80%: percent effect (mortality, anti-feeding or growth inhibition) at 12.5 ppm (Spodoptera littoralis [1]) | mortality at 200 ppm (Bemisia tabaci) | mortality at 200 ppm (Tetranychus urticae) | mortality at 200 ppm (Myzus persicae [2]) | mortality at 24 ppm (Myzus persicae [3]) | percent effect (mortality or growth inhibition) at 200 ppm (Plutella xylostella) | percent effect (mortality or growth inhibition) at 200 ppm (Euschistus heros) | percent effect (mortality or growth inhibition) at 200 ppm (Diabrotica balteata) | mortality at 200 ppm [4] | percent control (mortality, anti-feedant effect or growth inhibition) at 200 ppm (Spodoptera littoralis [5])

CCS(=O)(=O)c1cc(C(C)(C)C#N)cnc1-c1nc2cc(C(F)(F)F)n(CC(F)(F)F)c(=O)c2n1C [Compound P11, 2-[5-ethylsulfonyl-6-[3-methyl-4-oxo-5-(2,2,2-trifluoroethyl)-6-(trifluoromethyl)imidazo[4,5-c]pyridin-2-yl]-3-pyridyl]-2-methyl-propanenitrile]
≥ 80%: mortality at 200 ppm (Bemisia tabaci) | mortality at 200 ppm (Myzus persicae [2]) | percent effect (mortality or growth inhibition) at 200 ppm (Plutella xylostella) | percent effect (mortality or growth inhibition) at 200 ppm (Diabrotica balteata) | mortality at 200 ppm [4] | percent control (mortality, anti-feedant effect or growth inhibition) at 200 ppm (Spodoptera littoralis [5])

CCS(=O)(=O)c1cc(C(C)(C)C#N)cnc1-c1cn2ccc(C(F)(F)C(F)(F)F)cc2n1 [Compound P6, 2-[5-ethylsulfonyl-6-[7-(1,1,2,2,2-pentafluoroethyl)imidazo[1,2-a]pyridin-2-yl]-3-pyridyl]-2-methyl-propanenitrile]
≥ 80%: mortality at 200 ppm (Bemisia tabaci) | mortality at 200 ppm (Tetranychus urticae) | mortality at 200 ppm (Myzus persicae [2]) | percent effect (mortality or growth inhibition) at 200 ppm (Plutella xylostella) | percent effect (mortality or growth inhibition) at 200 ppm (Diabrotica balteata) | mortality at 200 ppm [4] | percent control (mortality, anti-feedant effect or growth inhibition) at 200 ppm (Spodoptera littoralis [5])

CCS(=O)(=O)c1cc(C(C)(C)C#N)ccc1-c1nc2cc(C(F)(F)F)n(C3CC3)c(=O)c2n1C [Compound P12, 2-[4-[5-cyclopropyl-3-methyl-4-oxo-6-(trifluoromethyl)imidazo[4,5-c]pyridin-2-yl]-3-ethylsulfonyl-phenyl]-2-methyl-propanenitrile]
≥ 80%: mortality at 200 ppm (Bemisia tabaci) | mortality at 200 ppm (Tetranychus urticae) | mortality at 200 ppm (Myzus persicae [2]) | percent effect (mortality or growth inhibition) at 200 ppm (Plutella xylostella) | percent effect (mortality or growth inhibition) at 200 ppm (Diabrotica balteata) | mortality at 200 ppm [4] | percent control (mortality, anti-feedant effect or growth inhibition) at 200 ppm (Spodoptera littoralis [5])

CCS(=O)(=O)c1cc(C(C)(C)C#N)cnc1-c1nc2cc(C(F)(F)F)n(C3CC3)c(=O)c2n1C [Compound P17, 2-[6-[5-cyclopropyl-3-methyl-4-oxo-6-(trifluoromethyl)imidazo[4,5-c]pyridin-2-yl]-5-ethylsulfonyl-3-pyridyl]-2-methyl-propanenitrile]
≥ 80%: mortality at 200 ppm (Bemisia tabaci) | mortality at 200 ppm (Tetranychus urticae) | mortality at 200 ppm (Myzus persicae [2]) | mortality at 24 ppm (Myzus persicae [3]) | percent effect (mortality or growth inhibition) at 200 ppm (Plutella xylostella) | percent effect (mortality or growth inhibition) at 200 ppm (Diabrotica balteata) | mortality at 200 ppm [4] | percent control (mortality, anti-feedant effect or growth inhibition) at 200 ppm (Spodoptera littoralis [5])
